Here are results for one compound from publication PMC8694812 (RSC Advances, 2021).

The structures appear in SMILES notation.

One data set deals with A549 cells. Description: MTT cell viability of A549 cells, dark and 660 nm LED irradiation. Format: cell-based, human. The following applies: 24 hours, 660 nm 30 min.
The next data set has as its system BEAS-2B cells. Description: MTT cell viability of BEAS-2B cells, dark and 660 nm LED irradiation. It counts as cell-based, human. The settings on record: Eu bis up to 50 μM, Lu bis above 2.5 μM, ZnPc 0.25 μM or above.
The conditions of data set [1]: ZnPc standard, cited from earlier work.
For data set [2] the following is noted: ZnPc standard, cited from earlier work. The source holds these as a separate data set.
The conditions of data set [3]: DMSO, ZnPc standard; cited from earlier work.

For the compound `[Zn+2].c1ccc2c(c1)-c1nc-2nc2[n-]c(nc3nc([n-]c4nc(n1)-c1ccccc1-4)-c1ccccc1-3)c1ccccc21` [ZnPc, unsubstituted zinc(II)phthalocyanine], the “effect of light irradiation on viability/toxicity” value in the data set with A549 cells is “high toxicity in the sub-μM range”. Further, the “effect of light irradiation on viability” value with BEAS-2B cells is “reduced the viability”. Also, in data set [1] (fraction), the “Direct ΦΔ in THF” value is 0.530 (ref. [66]). Moreover, in data set [1] (singlet oxygen quantum yield, THF), the “ΦΔ (%) Direct in THF” value was 53%. Moreover, in data set [2] (fraction), the “Indirect ΦΔ in DMSO” value is 0.670 (ref. [65]). In data set [2] (singlet oxygen quantum yield, DMSO), the “ΦΔ (%) Indirect in DMSO” value was 67%. Besides, the “ΦF (fluorescence quantum yield)” value in data set [3] was 0.180 (ref. [64]).
